According to PMC12770474 (Nature Communications, 2025):

What was measured:
[1] = test system: OVX mice; conditions: mouse, in vivo
[2] = test system: OCs; experiment: Tunel staining of OCs apoptosis; format: cell-based, mice; conditions: BGD 64 μM or ALD 500 μM, 24 h, n = 3
[3] = test system: OCs formed by BMMs; experiment: TRAP staining of RANKL-induced OCs formed by BMMs; format: cell-based, mice; conditions: TRAP staining day 6, n = 5
[4] = TEM morphology of peptide assemblies in PBS; conditions: 64 μM in PBS pH 7.4, 8 h incubation
[5] = Dynamic light scattering; format: physicochemical; conditions: self-assembled nanoparticles, aqueous solution pH 7.4, 64 μM, Zetasizer
[6] = test system: BMMs; experiment: CCK-8 cytotoxicity assay, BMMs; format: cell-based, mice; conditions: CCK-8, 24 h, different concentrations, n = 3
[7] = Zeta potential of peptide assemblies; format: physicochemical; conditions: self-assembled peptide, 64 μM, Zetasizer, n = 3
[8] = target: T1, CTSK (Homo sapiens, UniProt P43235); experiment: Zeta potential of the enzymolysis reaction mixture with and without CTSK; format: physicochemical; conditions: 64 μM peptide
T1 sequence (P43235 115-329): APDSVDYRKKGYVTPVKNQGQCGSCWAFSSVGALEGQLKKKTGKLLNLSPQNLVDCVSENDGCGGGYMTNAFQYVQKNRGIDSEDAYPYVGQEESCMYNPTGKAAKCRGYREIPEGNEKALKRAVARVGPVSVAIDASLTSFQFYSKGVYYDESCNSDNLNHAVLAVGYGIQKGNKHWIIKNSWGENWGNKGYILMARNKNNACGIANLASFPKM

Question: With NCCCC(O)(P(=O)(O)O)P(=O)(O)O [ALD, Alendronate] as the molecule, how does the “micro-CT bone parameters (BMD, BV/TV, Tb.Th, Tb.N, Tb.Sp) vs OVX” value [1] read?
Answer: significantly improved

Question: What about the “cells undergoing apoptosis (Tunel staining)” value [2] of the same molecule?
Answer: a large number of OCs and pre-OCs underwent apoptosis

Question: Which “OCs formation, inhibitor alone” value ([3]; 20 nM on day 5 of RANKL induction) does the source give for CCCN1CCN(c2ccc(C(=O)NC3(C(=O)NCC#N)CCCCC3)cc2)CC1 [Balicatib, reference compound] here?
Answer: did not inhibit OCs formation

Question: With Bip-FFWKYK-GHPAAPQ-DDDDDD [BAD] as the molecule, how does the “morphology of assemblies (TEM)” value [4] read?
Answer: dispersed, nearly spherical nanoparticles

Question: And the “average size of nanoparticles (DLS)” value [5]?
Answer: 36.6 nm

Question: What about the “cytotoxicity toward BMMs” value [6] of the same molecule?
Answer: consistent cytocompatibility

Question: What about the Zeta potential [7] of the same molecule?
Answer: −20.8 mV

Question: And the “zeta potential of reaction mixture, presence of CTSK / after cleavage” value ([8]; MES buffer pH 5.5, with CTSK 800 ng/ml)?
Answer: −9.5 mV

Question: What about the “zeta potential of reaction mixture, absence of CTSK / before cleavage” value ([8]; MES buffer pH 5.5, without CTSK) of the same molecule?
Answer: −14.3 mV

Question: What about the “number of TRAP-positive OCs vs RANKL control” value ([3]; peptide (64 μM) added on day 5 of RANKL induction) of the same molecule?
Answer: no significant effect

Question: Which “cytotoxicity toward BMMs” value [6] does the source give for Bip-FFWKYK-GHPGGPQ-KKKKKK [BGK] here?
Answer: exhibited cytotoxicity at 32 μM

Question: What about the Zeta potential [7] of the same molecule?
Answer: +11.2 mV

Question: With Bip-FFWKYK-GHPGGPQ-NNNNNN [BGN] as the molecule, how does the “cytotoxicity toward BMMs” value [6] read?
Answer: biocompatible

Question: What about the Zeta potential [7] of the same molecule?
Answer: −26.4 mV
